According to patent US20190269752A1, “Methods for the Prevention or Treatment of Epilepsy” (Duke University, priority 2018, published 2019):
Where a SMILES comes first, the peptide text is derived from it. [ ]: non-standard residue; d: D form. pY = N[C@@H](Cc1ccc(OP(=O)(O)O)cc1)C(=O)O

Assays:
PLCγ1 = target: T1, PLCγ1 (Mus musculus, UniProt Q62077); experiment: Inhibition of PLCγ1 activation: western blot of p-PLCγ1 (pY783)/PLCγ1 in hippocampal lysates after intraperitoneal injection; format: in vivo; details: single dose 20 mg/kg i.p., wild type mice, hippocampal lysates at 3 h; dose dependent (10 or 20 mg/kg)
T1 construct: from tissue; host or cells: hippocampus of adult wild type mice
T1 sequence (Q62077 1-1302): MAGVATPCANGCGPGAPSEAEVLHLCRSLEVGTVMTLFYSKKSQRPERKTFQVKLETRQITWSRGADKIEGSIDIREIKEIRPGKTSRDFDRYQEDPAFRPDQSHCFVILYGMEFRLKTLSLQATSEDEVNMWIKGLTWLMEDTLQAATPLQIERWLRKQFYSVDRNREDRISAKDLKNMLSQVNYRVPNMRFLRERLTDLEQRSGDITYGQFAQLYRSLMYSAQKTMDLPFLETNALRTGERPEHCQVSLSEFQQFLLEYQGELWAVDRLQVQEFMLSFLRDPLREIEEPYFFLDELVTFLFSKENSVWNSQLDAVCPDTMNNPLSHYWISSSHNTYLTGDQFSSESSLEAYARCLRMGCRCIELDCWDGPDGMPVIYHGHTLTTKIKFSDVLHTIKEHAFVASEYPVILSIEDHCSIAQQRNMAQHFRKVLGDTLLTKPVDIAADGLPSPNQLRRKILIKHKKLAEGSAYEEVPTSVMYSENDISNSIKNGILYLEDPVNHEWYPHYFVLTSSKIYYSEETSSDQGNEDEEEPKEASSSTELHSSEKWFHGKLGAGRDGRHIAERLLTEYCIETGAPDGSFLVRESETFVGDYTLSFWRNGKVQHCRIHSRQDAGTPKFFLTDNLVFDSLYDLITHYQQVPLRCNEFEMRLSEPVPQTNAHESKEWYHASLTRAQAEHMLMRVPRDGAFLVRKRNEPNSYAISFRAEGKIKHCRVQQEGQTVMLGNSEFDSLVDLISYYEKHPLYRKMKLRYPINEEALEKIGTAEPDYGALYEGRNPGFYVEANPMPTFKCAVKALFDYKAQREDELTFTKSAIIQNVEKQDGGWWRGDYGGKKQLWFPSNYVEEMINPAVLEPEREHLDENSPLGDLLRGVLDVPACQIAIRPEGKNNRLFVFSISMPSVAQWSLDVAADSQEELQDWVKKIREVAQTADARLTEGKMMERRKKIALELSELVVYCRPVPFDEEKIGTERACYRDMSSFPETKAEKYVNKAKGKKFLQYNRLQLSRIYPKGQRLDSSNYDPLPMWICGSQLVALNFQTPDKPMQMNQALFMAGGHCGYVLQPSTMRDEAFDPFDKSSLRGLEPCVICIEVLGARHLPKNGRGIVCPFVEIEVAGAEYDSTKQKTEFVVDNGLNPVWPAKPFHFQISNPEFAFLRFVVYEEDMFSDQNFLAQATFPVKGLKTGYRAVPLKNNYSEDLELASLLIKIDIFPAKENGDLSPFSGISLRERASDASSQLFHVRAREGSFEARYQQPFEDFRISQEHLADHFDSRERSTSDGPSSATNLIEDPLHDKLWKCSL
Excerpt: (§1) Determining whether pY816 may be beneficial in epileptic animals required modification of our study of the kainic acid (KA)-status epilepticus (SE) model. To more closely mimic the clinical scenario in which patients seek medical attention for established TLE, we induced KA-SE and then conducted video-EEG recordings to detect spontaneous recurrent seizures during baseline periods of two to four weeks until they developed TLE prior to treating with pY816 peptide. In contrast to just three days of treatment with pY816 deployed in previous studies, we sought a more prolonged treatment with pY816 for the current experiments, namely two weeks. The intravenous route of administration used for three days in the prior studies was not feasible for two weeks, leading us to ask whether treatment via intraperitoneal route could inhibit activation of PLCγ1. We used the phosphorylation of residue Y783 of PLCγ1 detected on western blot of brain lysates as a surrogate measure of PLCγ1 activation.
Hippocampal lysates (30-40 μg) were subjected to SDS_PAGE and western blotting. The blots were probed with antibodies specifically recognizing p-PLCγ1 (pY783) (a surrogate for activation of PLCγ1) and PLCγ1.

[1] = system: epileptic animals (KA-SE); experiment: Spontaneous recurrent seizures (video-EEG) after kainic acid-induced status epilepticus (KA-SE model of TLE); format: in vivo, mice; details: 20 mg/kg IP twice daily for two weeks
Excerpt: as §1
Having verified that intraperitoneal administration of pY816 inhibited PLCγ1 activation, we then asked whether treatment with pY816 initiated after onset of epilepsy and continued for two weeks would reduce the severity of epilepsy or even induce a remission. Towards that end, we induced KA-SE but then followed the animals for several weeks until they developed TLE as assessed by detection of SRS in continuous video-EEG recordings. We quantified the number of SRS in each animal by blinded review of video-EEG recordings during three distinct two week epochs (FIG. 8): a) baseline; b) treatment with pY816 (n=9) or Scr control (n=6), 20 mg/kg IP twice daily for two weeks (on Tx); c) following termination of treatment (Post Tx). As noted in FIG. 8, following induction of status epilepticus induced by infusion of kainic acid into amygdala (Gu et al 2015) animals underwent continuous video-EEG recording to detect spontaneous recurrent seizures. Following baseline recording of two weeks, animals were treated with either pY816 or Scr control peptide (20 mg/kg) twice daily for two weeks (Day 15-28). Video-EEG recording continued for two weeks following termination of treatment (Post-treatment).
Results are shown in FIG. 9, where each symbol represents the number of seizures experienced by a given animal during Baseline, Treatment (Tx), or Post-treatment (Post Tx) periods. Horizontal bars designate median. Treatment (Tx) consisted of either pY816 or Scr control given 20 mg/kg twice daily for two weeks. Note that seizure detection was performed by analyses of video-EEG recordings by two blinded investigators.
Antiseizure drugs in current clinical use provide symptomatic relief of seizures in many but not all patients, but seizures typically recur upon cessation of the drug. To verify that similar findings occur in our animal model, we tested the effect of an antiseizure drug in current clinical use in our model (carbamazepine). We infused additional animals with KA and assessed the occurrence of SRS with continuous video-EEG monitoring for several weeks. […] Thus, like TLE in humans, continuous treatment with an antiseizure drug suppresses seizures, yet seizures recur upon discontinuation of treatment.

Compound: CC[C@H](C)[C@H](NC(=O)[C@H](CC(=O)O)NC(=O)[C@H](CC(C)C)NC(=O)[C@H](Cc1ccc(OP(=O)(O)O)cc1)NC(=O)[C@@H](NC(=O)[C@@H]1CCCN1C(=O)[C@H](CO)NC(=O)[C@H](C)NC(=O)[C@H](CCCCN)NC(=O)[C@H](C)NC(=O)[C@H](CC(C)C)NC(=O)[C@H](CC(N)=O)NC(=O)[C@H](CCC(N)=O)NC(=O)[C@H](CC(C)C)NC(=O)[C@H](CCCNC(=N)N)NC(=O)[C@H](CCCNC(=N)N)NC(=O)[C@H](CCCNC(=N)N)NC(=O)[C@H](CCC(N)=O)NC(=O)[C@H](CCCNC(=N)N)NC(=O)[C@H](CCCNC(=N)N)NC(=O)[C@H](CCCCN)NC(=O)[C@H](CCCCN)NC(=O)[C@H](CCCNC(=N)N)NC(=O)CNC(=O)[C@@H](N)Cc1ccc(O)cc1)C(C)C)C(=O)O [pY816] (H-YGRKKRRQRRRLQNLAKASPV[pY]LDI-OH)
- Inhibition of PLCγ1 activation (reduction of p-PLCγ1 (pY783)/PLCγ1 ratio versus Scr) (PLCγ1): ~60%
- Overt untoward effects during or following treatment [1]: No overt untoward effects were detected
